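Following 48 hours of exposure in 96-well plates, responses at five concentrations were used to interpolate endpoints linearly. Abbreviation: GI50, concentration required for 50% inhibition of growth.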 The source made the active and inactive calls. No stated cut-off is given here; in the data, active = GI50 up to about 1.1 µM and inactive = higher.
Columns and labels:
Experiment in all cases: NCI anticancer screen, dose series, 48 h
CCRF-CEM = system: CCRF-CEM
MOLT-4 = system: MOLT-4
KM12 = system: KM12
U-251 = system: U-251
SR = system: SR
UO-31 = system: UO-31
SF-295 = system: SF-295
NCI-H23 = system: NCI-H23
Malme-3M = system: Malme-3M
LXFL 529 = system: LXFL 529
NCI-H460 = system: NCI-H460
M19-MEL = system: M19-MEL
EKVX = system: EKVX
NCI-H522 = system: NCI-H522
OVCAR-8 = system: OVCAR-8
T47D = system: T47D
BT-549 = system: BT-549
MDA-MB-435 = system: MDA-MB-435
MDA-MB-231 = system: MDA-MB-231
PC-3 = system: PC-3

Measured: GI50

CCOC(=O)C1=C(OC(OCC)C([Se]c2ccccc2)C(C)C)CCC1 (stereo not given)
inactive: CCRF-CEM 3.44 µM | MOLT-4 14.7 µM | KM12 41.1 µM | U-251 4.29 µM | SR 3.2 µM | UO-31 24.4 µM | SF-295 13.4 µM | NCI-H23 8.28 µM | Malme-3M 26.4 µM | LXFL 529 12.2 µM | NCI-H460 16.9 µM | M19-MEL 15.3 µM | EKVX 18.8 µM | NCI-H522 7.1 µM | OVCAR-8 14.1 µM

O=C(c1ccccc1)n1cc(/C=C/[N+](=O)[O-])c2ccccc21
inactive: CCRF-CEM 13.4 µM | MOLT-4 17.2 µM | KM12 18.5 µM | U-251 18.5 µM | SR 19.7 µM | UO-31 20.1 µM | SF-295 42 µM | NCI-H23 20.1 µM | Malme-3M 32.2 µM | LXFL 529 18.5 µM | NCI-H460 21.9 µM | M19-MEL 20.8 µM | EKVX > 100 µM | NCI-H522 15.1 µM | OVCAR-8 35.6 µM

COc1ccc(COC2CC(OC)OC(C)C2OC(=O)c2ccccc2)cc1 (stereo not given)
inactive: CCRF-CEM 30.3 µM | MOLT-4 15.6 µM | KM12 34.8 µM | U-251 35.5 µM | SR 19 µM | UO-31 22.7 µM | SF-295 38.5 µM | NCI-H23 28.4 µM | Malme-3M 29 µM | LXFL 529 26.5 µM | NCI-H460 36.7 µM | M19-MEL 34.5 µM | EKVX 70.1 µM | NCI-H522 30.6 µM | OVCAR-8 31.6 µM

N#C/N=C(/N)NCN/C(N)=N\C#N
inactive: CCRF-CEM > 100 µM | MOLT-4 > 100 µM | KM12 > 100 µM | U-251 > 100 µM | SR 27.1 µM | UO-31 > 100 µM | SF-295 > 100 µM | NCI-H23 > 100 µM | Malme-3M > 100 µM | LXFL 529 > 100 µM | NCI-H460 > 100 µM | M19-MEL > 100 µM | EKVX > 100 µM | NCI-H522 > 100 µM | OVCAR-8 > 100 µM

O=C(O)CCCCCO
inactive: CCRF-CEM > 100 µM | MOLT-4 > 100 µM | KM12 > 100 µM | U-251 > 100 µM | SR > 100 µM | UO-31 > 100 µM | SF-295 > 100 µM | NCI-H23 > 100 µM | Malme-3M > 100 µM | LXFL 529 > 100 µM | NCI-H460 > 100 µM | M19-MEL > 100 µM | EKVX > 100 µM | NCI-H522 > 100 µM | OVCAR-8 > 100 µM

CCOC(=O)/C(=C/c1cccc(Cl)c1)N(CC)CC
inactive: CCRF-CEM 43.1 µM | MOLT-4 87.7 µM | KM12 39.1 µM | U-251 43.3 µM | SR > 100 µM | UO-31 37.1 µM | SF-295 46.3 µM | NCI-H23 27.7 µM | Malme-3M 57.3 µM | LXFL 529 46.7 µM | NCI-H460 46.5 µM | M19-MEL 88.7 µM | EKVX 55.7 µM | NCI-H522 24.3 µM | OVCAR-8 42.2 µM

COc1cccc(C2CC23C(=O)NC(=O)NC3=O)c1 (stereo not given)
inactive: CCRF-CEM > 100 µM | MOLT-4 > 100 µM | KM12 > 100 µM | U-251 > 100 µM | SR > 100 µM | UO-31 > 100 µM | SF-295 > 100 µM | NCI-H23 > 100 µM | Malme-3M > 100 µM | LXFL 529 > 100 µM | NCI-H460 > 100 µM | M19-MEL > 100 µM | EKVX > 100 µM | NCI-H522 > 100 µM | OVCAR-8 > 100 µM

CC(C)c1ccccc1NC(=O)C(=O)Cc1nc2ccccc2s1
inactive: CCRF-CEM > 100 µM | MOLT-4 > 100 µM | KM12 > 100 µM | U-251 > 100 µM | SR > 100 µM | UO-31 > 100 µM | SF-295 > 100 µM | NCI-H23 > 100 µM | Malme-3M > 100 µM | LXFL 529 > 100 µM | NCI-H460 > 100 µM | M19-MEL > 100 µM | EKVX > 100 µM | NCI-H522 > 100 µM | OVCAR-8 > 100 µM

CCOC(=O)C(Cc1cc(OC)c(CC(C(=O)OCC)C(=O)OCC)cc1OC)C(=O)OCC
inactive: CCRF-CEM > 100 µM | T47D > 100 µM | MOLT-4 > 100 µM | BT-549 > 100 µM | KM12 > 100 µM | U-251 > 66.4 µM | SR > 100 µM | UO-31 44 µM | SF-295 > 92.7 µM | NCI-H23 > 100 µM | MDA-MB-435 > 100 µM | Malme-3M > 100 µM | LXFL 529 > 100 µM | NCI-H460 > 100 µM | M19-MEL > 100 µM | MDA-MB-231 44.9 µM | EKVX > 100 µM | NCI-H522 > 100 µM | OVCAR-8 > 81.1 µM | PC-3 > 100 µM

C=C(CCCCC)CN1CCCC1C(C)=O (stereo not given)
inactive: CCRF-CEM 12.9 µM | MOLT-4 8.75 µM | KM12 33 µM | U-251 30.6 µM | SR 14.9 µM | UO-31 31.4 µM | SF-295 26.8 µM | NCI-H23 17.4 µM | Malme-3M 41.8 µM | LXFL 529 27.3 µM | NCI-H460 29 µM | M19-MEL 28.9 µM | EKVX 35 µM | NCI-H522 11.4 µM | OVCAR-8 28.6 µM

From ChEMBL document CHEMBL1201862, “PubChem BioAssay data set” (2004)
